By Papp is commonly meant the rate of passage across a membrane or cell layer, normalised by area and donor concentration. Higher therefore signals ready permeation. By inhibition is commonly meant how much of the control response was suppressed. Usually Ki stands for a measure of affinity in units of concentration, obtained from inhibition or displacement.

The nature of series [1]: Intrinsic permeability of compound at 50 uM at pH 7.4 after 16 hrs by PAMPA assay. The class given is ADME. In general terms: In PAMPA a lipid-coated filter parts donor from acceptor wells.
Series [2] concerns the target T1, Tyrosine-protein phosphatase non-receptor type 1 (Homo sapiens) (UniProt P18031).
T1 sequence (whole entry): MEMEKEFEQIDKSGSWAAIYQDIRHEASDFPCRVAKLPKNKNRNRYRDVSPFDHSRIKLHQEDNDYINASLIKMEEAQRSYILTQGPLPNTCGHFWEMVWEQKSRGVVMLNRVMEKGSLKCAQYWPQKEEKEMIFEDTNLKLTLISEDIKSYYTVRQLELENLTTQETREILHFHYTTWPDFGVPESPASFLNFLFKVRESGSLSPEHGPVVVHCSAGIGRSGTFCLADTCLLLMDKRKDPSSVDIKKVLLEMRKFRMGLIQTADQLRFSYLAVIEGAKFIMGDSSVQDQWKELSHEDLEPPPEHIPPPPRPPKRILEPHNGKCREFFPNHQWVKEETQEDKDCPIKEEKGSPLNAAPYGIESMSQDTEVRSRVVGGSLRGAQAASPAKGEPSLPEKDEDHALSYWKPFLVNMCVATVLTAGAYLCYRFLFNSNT
Kind of series: Inhibition of recombinant human PTP1B expressed in Escherichia coli expression system using pNPP as substrate at 100 uM preincubated for 30 mins followed by substrate addition by […].

Series [3] addresses T1, Tyrosine-protein phosphatase non-receptor type 1 (Homo sapiens). Kind of series: Inhibition of recombinant human PTP1B expressed in Escherichia coli expression system using pNPP as substrate at 10 uM preincubated for 30 mins followed by substrate addition by […].
In series [4] the target is T2, Tyrosine-protein phosphatase non-receptor type 1 (Homo sapiens, UniProt P18031).
T2 sequence (P18031 whole entry): T1 sequence (whole entry)
Kind of series: Inhibition of recombinant human PTP1B expressed in Escherichia coli expression system using pNPP as substrate preincubated for 30 mins followed by substrate addition by […].

Series [5] in a line: Intrinsic clearance in mouse liver microsomes at 1 uM preincubated for 5 mins followed by NADPH addition measured up to 30 mins by LC-MS/MS analysis. The class given is ADME. The conditions noted are these: 0.5 h.
Series [6] can be described thus: Intrinsic clearance in rat liver microsomes at 1 uM preincubated for 5 mins followed by NADPH addition measured up to 30 mins by LC-MS/MS analysis. Format: ADME. The conditions noted are these: 0.5 h. (In general: Microsomes from liver hold many membrane-bound enzymes, among them those of drug oxidation.)

In series [1], `Nc1c(C(=O)O)cnn1-c1ccc(CC(C(=O)c2ccc(Cl)cc2)c2ccc(F)c(F)c2)cc1` (stereo not given) showed a Papp at 16 h, 50 µM of 15 nm/s. For the same molecule, the inhibition in series [2] came out at 91.5%; in series [3], 16.2%.

On to `COc1ccc(C(Cc2ccc(-n3ncc(C(=O)O)c3N)cc2)c2nc(-c3cccc(F)c3)no2)cc1` (stereo not given), for which the Ki in series [4] is 8.6 µM. The molecule also displayed a CLH in series [5] of 1.3 mL/min/g. In series [6], the “intrinsic clearance (CLint)” value is 3 mL/min/g. Moreover, the values for the inhibition in series [2] and in series [3] were 93.3% and 22%, respectively.

Turning to `Nc1c(C(=O)O)cnn1-c1ccc(CN(Cc2ccc(Cl)cc2)Cc2ccc(F)c(F)c2)cc1`, the Ki in series [4] was 11 µM. Further, the Papp at 16 h, 50 µM in series [1] was 498 nm/s. The molecule also yielded a CLH in series [5] of 1.2 mL/min/g. Further, in series [6], the “intrinsic clearance (CLint)” value worked out at 2 mL/min/g. For the same molecule, the inhibition stood at 97.2% in series [2] and 22.5% in series [3].

Consider `Nc1c(C(=O)O)cnn1-c1ccc(CC(C(=O)c2ccccc2)c2ccccc2)cc1` (stereo not given), for which the values for the inhibition in series [2] and in series [3] were 32.6% and 9.6%, respectively.

`Nc1c(C(=O)O)cnn1-c1ccc(CC(C(=O)c2ccc(F)cc2)c2ccccc2)cc1` (stereo not given): the values for the inhibition in series [2] and in series [3] were 36.8% and 12.1%, respectively.

In the case of `Nc1c(C(=O)O)cnn1-c1ccc(CC(c2ccc(F)cc2)c2nc(-c3cccc(F)c3)no2)cc1` (stereo not given), the inhibition in series [2] was determined as 94.9%; in series [3], 19%.

For `Nc1c(C(=O)O)cnn1-c1ccc(CN(Cc2ccccc2)Cc2ccccc2)cc1`, the inhibition in series [2] was 64%; in series [3] it was 8.9%.

On to `COc1ccc(C(Cc2ccc(-n3ncc(C(=O)O)c3N)cc2)c2nc(-c3ccc(Cl)cc3)no2)cc1` (stereo not given), for which the Ki in series [4] was 4.4 µM. In addition, the CLH in series [5] came out at 1.5 mL/min/g. Moreover, the “intrinsic clearance (CLint)” value in series [6] was 2 mL/min/g. In addition, the results for the inhibition in series [2] and in series [3] were 98.3% and 33.7%, respectively.

Regarding `COc1ccc(C(=O)C(Cc2ccc(-n3ncc(C(=O)O)c3N)cc2)c2ccc(OC)cc2)cc1` (stereo not given), the inhibition stood at 39.7% in series [2] and 4.8% in series [3].

For `Nc1c(C(=O)O)cnn1-c1ccc(CC(C(=O)c2ccc(Cl)cc2)c2ccc(F)cc2)cc1` (stereo not given), the inhibition in series [2] was determined as 89.5%; in series [3] it was 18.8%.

Turning to `Nc1c(C(=O)O)cnn1-c1ccc(CN(Cc2ccc(F)cc2)Cc2ccc(F)cc2)cc1`, the inhibition was 98.4% in series [2] and 40.8% in series [3].

As to `CC(C)NCC(O)COc1cccc2ccccc12` (stereo not given) [PROPRANOLOL], the Papp at 16 h, 50 µM in series [1] stood at 166 nm/s.

In the case of `Nc1c(C(=O)O)cnn1-c1ccc(CN(Cc2ccc(F)cc2)Cc2ccc(Cl)cc2)cc1`, the Ki in series [4] was 4.5 µM. This molecule also had an apparent permeability coefficient (Papp) at 16 h, 50 µM in series [1] of 106 nm/s. For the same molecule, in series [5], the CLH was 2.1 mL/min/g. Moreover, the “intrinsic clearance (CLint)” value in series [6] worked out at 3 mL/min/g. Also, the inhibition in series [2] was determined as 97.4%; in series [3], 43.8%.

`Nc1c(C(=O)O)cnn1-c1ccc(CC(c2ccc(F)cc2)c2nc(-c3ccc(Cl)cc3)no2)cc1` (stereo not given): the inhibition constant Ki in series [4] turned out to be 4.6 µM. The molecule further had an apparent permeability coefficient (Papp) at 16 h, 50 µM in series [1] of 91 nm/s. Also, in series [5], the CLH is 0 mL/min/g. For the same molecule, in series [6], the “intrinsic clearance (CLint)” value stood at 3 mL/min/g. Besides, the inhibition in series [2] is 97.3%; in series [3], 30.8%.

`Nc1c(C(=O)O)cnn1-c1ccc(CC(C(=O)c2ccc(F)cc2)c2ccc(F)cc2)cc1` (stereo not given): the results for the inhibition in series [2] and in series [3] were 34.4% and 0.8%, respectively.

On to `COc1ccc(-c2noc(C(Cc3ccc(-n4ncc(C(=O)O)c4N)cc3)c3ccc(F)cc3)n2)cc1` (stereo not given), for which the Ki in series [4] amounted to 8.1 µM. Also, the Papp at 16 h, 50 µM in series [1] was determined as 4 nm/s. Besides, in series [5], the CLH was 1.5 mL/min/g. Also, the “intrinsic clearance (CLint)” value in series [6] amounted to 3 mL/min/g. Moreover, the inhibition in series [2] came to 95.5%; in series [3], 25.8%.

Regarding `Nc1c(C(=O)O)cnn1-c1ccc(CC(C(=O)c2ccc(F)cc2)c2ccc(F)c(F)c2)cc1` (stereo not given), the inhibition in series [2] came out at 82.2%; in series [3], 21.6%.

Regarding `COc1ccc(CN(Cc2ccc(C)cc2)Cc2ccc(-n3ncc(C(=O)O)c3N)cc2)cc1`, the inhibition in series [2] amounted to 49.7%; in series [3], 5%.

Regarding `COc1ccc(CN(Cc2ccc(F)cc2)Cc2ccc(-n3ncc(C(=O)O)c3N)cc2)cc1`, the inhibition worked out at 82.2% in series [2] and 21.6% in series [3].

`COc1ccc(CN(Cc2ccc(OC)cc2)Cc2ccc(-n3ncc(C(=O)O)c3N)cc2)cc1`: the Ki in series [4] is 7.1 µM. Further, in series [1], the Papp at 16 h, 50 µM is 125 nm/s. The molecule further showed a CLH in series [5] of 5.6 mL/min/g. For the same molecule, the “intrinsic clearance (CLint)” value in series [6] worked out at 2.5 mL/min/g. In addition, the figures for the inhibition in series [2] and in series [3] were 76.9% and 9.9%, respectively.

`Nc1c(C(=O)O)cnn1-c1ccc(CC(c2ccccc2)c2nc(-c3ccccc3)no2)cc1` (stereo not given): the inhibition is 64% in series [2] and 12.2% in series [3].

With `COc1ccc(CN(Cc2ccc(F)cc2)Cc2ccc(-n3ncc(C(=O)O)c3N)cc2)cc1OC`, in series [4], the Ki was found to be 4.1 µM. In series [5], this molecule returned a CLH of 7.4 mL/min/g. Further, the “intrinsic clearance (CLint)” value in series [6] is 4 mL/min/g. For the same molecule, the results for the inhibition in series [2] and in series [3] were 94% and 35.1%, respectively.

As for `Nc1c(C(=O)O)cnn1-c1ccc(CC(C(=O)c2ccccc2)c2ccc(F)c(F)c2)cc1` (stereo not given), the inhibition was determined as 48.5% in series [2] and 10.5% in series [3].

On to `Nc1c(C(=O)O)cnn1-c1ccc(CC(C(=O)c2ccccc2)c2ccc(F)cc2)cc1` (stereo not given), for which the inhibition turned out to be 43.9% in series [2] and 19% in series [3].

Regarding `COc1ccc(C(=O)C(Cc2ccc(-n3ncc(C(=O)O)c3N)cc2)c2ccc(F)cc2)cc1` (stereo not given), the figures for the inhibition in series [2] and in series [3] were 58.5% and 13.5%, respectively.

`Nc1c(C(=O)O)cnn1-c1ccc(CN(Cc2ccc(F)cc2)Cc2ccc(F)c(F)c2)cc1`: the Ki in series [4] worked out at 13 µM. Besides, in series [1], the apparent permeability coefficient (Papp) at 16 h, 50 µM came to 279 nm/s. This molecule also had a CLH in series [5] of 2.7 mL/min/g. In series [6], the “intrinsic clearance (CLint)” value came to 3 mL/min/g. In addition, the figures for the inhibition in series [2] and in series [3] were 95.2% and 19.5%, respectively.

The values above are taken from ChEMBL document CHEMBL3870366, “Rational design, synthesis, and structure-activity relationships of 5-amino-1H-pyrazole-4-carboxylic acid derivatives as protein tyrosine phosphatase 1B inhibitors” (Bioorg Med Chem, 2017).
